Experiments:
Dopamine D1 = biological target: T1, Dopamine D1 (Homo sapiens, UniProt P21728); experiment: Binding assay; conditions: smilagenin 1 μM
T1 construct: host or cells: tissue or cell homogenate, not specified
Method: (§1) The receptor binding was investigated using the following method: Sarsasapogenin was incubated with tissue or cell homogenate that expressed the receptor of interest and a known concentration a radiolabelled compound with affinity for the receptor of interest. After the incubation period the non-bound radiolabelled compound was removed and the amount of specific binding was quantified. The amount of specific binding in the presence and absence of sarsasapogenin were compared and the percent inhibition of the binding of the radiolabelled compound by sarsasapogenin was calculated. The source of the receptor, the incubation conditions, the radiolabelled compound used varied depending on each specific assay.
(§2) Using the same methods as described above, the binding of smilagenin (1 μM) to the receptors listed in Table 2 below, and the effect of smilagenin on the activity of the enzymes listed in Table 2 below, were investigated.

Calcitonin = Calcitonin (Homo sapiens, UniProt P30988); experiment: Binding assay; conditions: smilagenin 1 μM
Sequence of Calcitonin (P30988 25-474): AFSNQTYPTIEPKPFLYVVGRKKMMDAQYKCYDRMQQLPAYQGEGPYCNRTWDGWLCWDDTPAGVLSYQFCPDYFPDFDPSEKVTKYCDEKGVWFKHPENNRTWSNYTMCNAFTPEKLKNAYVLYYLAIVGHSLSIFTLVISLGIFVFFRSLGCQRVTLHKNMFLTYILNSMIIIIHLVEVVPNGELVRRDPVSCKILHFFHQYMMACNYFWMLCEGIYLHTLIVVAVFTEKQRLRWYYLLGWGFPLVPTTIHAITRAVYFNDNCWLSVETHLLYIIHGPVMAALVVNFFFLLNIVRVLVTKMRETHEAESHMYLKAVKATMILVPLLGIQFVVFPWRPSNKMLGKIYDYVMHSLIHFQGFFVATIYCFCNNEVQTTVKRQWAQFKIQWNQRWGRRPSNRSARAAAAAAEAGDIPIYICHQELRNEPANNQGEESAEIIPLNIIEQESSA
Method: as §1, §2

Somatostatin sst3 = Somatostatin sst3 (Homo sapiens, UniProt P32745); experiment: Binding assay; conditions: smilagenin 1 μM
Method: as §1, §2

Ryanodine RyR3 = Ryanodine RyR3 (Rattus norvegicus, UniProt A0ABK0LPH6); experiment: Binding assay; conditions: smilagenin 1 μM
Method: as §1, §2

Histamine H1 = biological target: T2, Histamine H1 (Homo sapiens, UniProt P35367); experiment: Binding assay; conditions: smilagenin 1 μM
T2 construct: host or cells: tissue or cell homogenate (not specified)
T2 sequence (P35367 whole entry): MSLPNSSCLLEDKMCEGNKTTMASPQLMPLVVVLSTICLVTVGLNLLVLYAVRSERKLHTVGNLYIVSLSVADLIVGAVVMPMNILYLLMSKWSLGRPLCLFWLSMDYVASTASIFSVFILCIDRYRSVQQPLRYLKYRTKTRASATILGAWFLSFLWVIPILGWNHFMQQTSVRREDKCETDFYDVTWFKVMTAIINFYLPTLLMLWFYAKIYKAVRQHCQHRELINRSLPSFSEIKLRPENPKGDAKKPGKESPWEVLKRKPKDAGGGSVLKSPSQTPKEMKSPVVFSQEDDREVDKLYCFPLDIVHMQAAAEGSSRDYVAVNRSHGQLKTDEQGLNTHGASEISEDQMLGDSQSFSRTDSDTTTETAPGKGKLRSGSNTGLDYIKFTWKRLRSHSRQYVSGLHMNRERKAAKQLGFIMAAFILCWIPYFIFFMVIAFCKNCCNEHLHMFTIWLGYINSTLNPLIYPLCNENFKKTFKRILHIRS
Method: as §1, §2

Melatonin MT1 = Melatonin MT1 (Homo sapiens, UniProt P48039); experiment: Binding assay; conditions: smilagenin 1 μM
Sequence of Melatonin MT1 (P48039 whole entry): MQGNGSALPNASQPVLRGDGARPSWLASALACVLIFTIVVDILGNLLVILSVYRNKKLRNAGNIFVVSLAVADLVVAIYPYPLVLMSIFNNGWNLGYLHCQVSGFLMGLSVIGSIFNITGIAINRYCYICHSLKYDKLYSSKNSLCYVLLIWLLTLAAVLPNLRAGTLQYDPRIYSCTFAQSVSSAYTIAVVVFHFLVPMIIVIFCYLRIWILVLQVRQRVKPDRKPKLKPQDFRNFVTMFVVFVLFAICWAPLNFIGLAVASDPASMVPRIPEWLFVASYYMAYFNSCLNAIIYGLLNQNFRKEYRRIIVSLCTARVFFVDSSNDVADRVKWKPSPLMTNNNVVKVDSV
Method: as §1, §2

Interleukin IL-2 = Interleukin IL-2 (Mus musculus, UniProt P01590); experiment: Binding assay; conditions: smilagenin 1 μM
Sequence of Interleukin IL-2 (P01590 22-268): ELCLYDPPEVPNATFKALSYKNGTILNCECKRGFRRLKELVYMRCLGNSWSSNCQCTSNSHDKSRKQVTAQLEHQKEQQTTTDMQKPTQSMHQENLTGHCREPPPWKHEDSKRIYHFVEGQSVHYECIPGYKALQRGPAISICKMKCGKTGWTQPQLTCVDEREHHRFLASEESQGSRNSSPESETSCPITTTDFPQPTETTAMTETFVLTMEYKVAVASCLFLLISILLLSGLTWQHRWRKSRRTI
Method: as §1, §2

[1] = biological target: Corticotropin Releasing Factor (CRF1) (Homo sapiens, UniProt P34998); experiment: Binding assay; conditions: smilagenin 1 μM
Sequence of Corticotropin Releasing Factor (CRF1) (P34998 24-415): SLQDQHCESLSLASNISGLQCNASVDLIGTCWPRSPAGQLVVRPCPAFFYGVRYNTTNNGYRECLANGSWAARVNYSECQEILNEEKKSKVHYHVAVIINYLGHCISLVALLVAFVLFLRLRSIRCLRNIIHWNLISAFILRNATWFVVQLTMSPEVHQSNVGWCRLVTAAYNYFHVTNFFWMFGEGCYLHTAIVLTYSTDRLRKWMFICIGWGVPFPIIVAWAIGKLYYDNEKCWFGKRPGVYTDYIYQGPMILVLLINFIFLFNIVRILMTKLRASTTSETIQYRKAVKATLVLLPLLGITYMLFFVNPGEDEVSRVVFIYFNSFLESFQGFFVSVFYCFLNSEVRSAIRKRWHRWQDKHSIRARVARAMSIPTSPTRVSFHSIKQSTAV
Method: as §1, §2

Colchicine = experiment: Binding assay; conditions: smilagenin 1 μM
Method: as §1, §2

Prostanoid EP4 = Prostanoid EP4 (Homo sapiens, UniProt P35408); experiment: Binding assay; conditions: smilagenin 1 μM
Method: as §1, §2

Interleukin IL-1 = Interleukin IL-1 (Mus musculus, UniProt P13504); experiment: Binding assay; conditions: smilagenin 1 μM
Method: as §1, §2

Adrenergic β2 = Adrenergic β2 (Homo sapiens, UniProt P07550); experiment: Binding assay; conditions: smilagenin 1 μM
Method: as §1, §2

Adrenergic α2A = Adrenergic α2A (Homo sapiens, UniProt P08913); experiment: Binding assay; conditions: smilagenin 1 μM
Method: as §1, §2

Dopamine D4.2 = Dopamine D4.2 (Homo sapiens, UniProt P21917, DEL265-296); experiment: Binding assay; conditions: smilagenin 1 μM
Sequence of Dopamine D4.2 (P21917 with tags, fused parts or gaps DEL265-296): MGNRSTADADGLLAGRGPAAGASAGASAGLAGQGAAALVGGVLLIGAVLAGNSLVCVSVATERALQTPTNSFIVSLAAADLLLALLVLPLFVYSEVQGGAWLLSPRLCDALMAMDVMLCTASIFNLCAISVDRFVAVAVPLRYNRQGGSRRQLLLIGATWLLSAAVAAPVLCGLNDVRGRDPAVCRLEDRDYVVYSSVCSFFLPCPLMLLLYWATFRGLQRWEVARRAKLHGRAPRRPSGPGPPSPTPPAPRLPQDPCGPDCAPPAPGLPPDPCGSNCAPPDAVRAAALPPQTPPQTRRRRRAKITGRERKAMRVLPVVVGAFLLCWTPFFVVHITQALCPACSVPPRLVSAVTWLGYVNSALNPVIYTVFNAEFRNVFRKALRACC
Method: as §1, §2

Melanocortin MC4 = Melanocortin MC4 (Homo sapiens, UniProt P32245); experiment: Binding assay; conditions: smilagenin 1 μM
Method: as §1, §2

Cannabinoid CB1 = Cannabinoid CB1 (Homo sapiens, UniProt P21554); experiment: Binding assay; conditions: smilagenin 1 μM
Sequence of Cannabinoid CB1 (P21554 whole entry): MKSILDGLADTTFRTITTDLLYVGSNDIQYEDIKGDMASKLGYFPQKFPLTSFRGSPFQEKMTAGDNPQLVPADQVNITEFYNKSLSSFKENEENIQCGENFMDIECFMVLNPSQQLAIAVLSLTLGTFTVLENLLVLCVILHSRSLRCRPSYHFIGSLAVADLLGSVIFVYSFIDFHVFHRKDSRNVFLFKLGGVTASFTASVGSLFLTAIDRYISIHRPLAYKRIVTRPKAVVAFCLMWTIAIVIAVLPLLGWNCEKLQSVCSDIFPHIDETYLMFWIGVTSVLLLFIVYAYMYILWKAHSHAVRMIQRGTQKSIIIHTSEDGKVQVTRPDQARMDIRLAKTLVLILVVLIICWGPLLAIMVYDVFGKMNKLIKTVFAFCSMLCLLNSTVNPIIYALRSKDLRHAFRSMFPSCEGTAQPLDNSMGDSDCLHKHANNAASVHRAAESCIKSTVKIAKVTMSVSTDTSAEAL
Method: as §1, §2

[2] = biological target: T3, Transporter, Norepinephrine (NET) (Homo sapiens, UniProt P23975); experiment: Binding assay; conditions: smilagenin 1 μM
T3 construct: host or cells: tissue or cell homogenate, not specified
Method: as §1, §2

Chemokine CCR4 = Chemokine CCR4 (Homo sapiens, UniProt P51679); experiment: Binding assay; conditions: smilagenin 1 μM
Method: as §1, §2

Muscarinic M4 = biological target: T4, Muscarinic M4 (Homo sapiens, UniProt P08173); experiment: Binding assay; conditions: smilagenin 1 μM
T4 construct: host or cells: tissue or cell homogenate, not specified
Method: as §1, §2

Muscarinic M5 = biological target: T5, Muscarinic M5 (Homo sapiens, UniProt P08912); experiment: Binding assay; conditions: smilagenin 1 μM
T5 construct: host or cells: tissue or cell homogenate, not specified
T5 sequence (P08912 whole entry): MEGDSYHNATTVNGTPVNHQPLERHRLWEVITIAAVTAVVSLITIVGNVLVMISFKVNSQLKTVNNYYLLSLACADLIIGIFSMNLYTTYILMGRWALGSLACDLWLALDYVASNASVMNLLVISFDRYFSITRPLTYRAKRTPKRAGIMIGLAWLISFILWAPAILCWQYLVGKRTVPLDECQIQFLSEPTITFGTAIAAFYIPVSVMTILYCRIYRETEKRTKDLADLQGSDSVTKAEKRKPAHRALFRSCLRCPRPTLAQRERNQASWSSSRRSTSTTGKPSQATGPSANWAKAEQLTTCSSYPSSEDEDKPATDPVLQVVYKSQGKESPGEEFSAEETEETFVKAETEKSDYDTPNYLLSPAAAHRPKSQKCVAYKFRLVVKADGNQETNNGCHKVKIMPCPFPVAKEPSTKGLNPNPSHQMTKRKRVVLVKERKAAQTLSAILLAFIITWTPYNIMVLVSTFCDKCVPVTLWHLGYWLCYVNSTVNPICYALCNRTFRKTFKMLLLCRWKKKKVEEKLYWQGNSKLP
Method: as §1, §2

Endothelin ETB = Endothelin ETB (Homo sapiens, UniProt P24530); experiment: Binding assay; conditions: smilagenin 1 μM
Sequence of Endothelin ETB (P24530 27-442): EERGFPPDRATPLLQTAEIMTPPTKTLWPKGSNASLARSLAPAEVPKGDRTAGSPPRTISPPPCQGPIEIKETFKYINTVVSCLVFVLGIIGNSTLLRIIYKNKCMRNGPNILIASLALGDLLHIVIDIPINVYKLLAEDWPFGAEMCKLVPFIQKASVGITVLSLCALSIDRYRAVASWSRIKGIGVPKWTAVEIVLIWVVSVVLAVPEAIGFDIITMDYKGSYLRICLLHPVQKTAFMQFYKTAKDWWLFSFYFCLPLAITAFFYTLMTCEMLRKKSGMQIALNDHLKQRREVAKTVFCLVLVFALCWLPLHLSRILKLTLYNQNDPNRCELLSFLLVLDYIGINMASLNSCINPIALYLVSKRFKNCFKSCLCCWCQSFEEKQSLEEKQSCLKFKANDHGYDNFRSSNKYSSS
Method: as §1, §2

Bradykinin B2 = Bradykinin B2 (Homo sapiens, UniProt P30411); experiment: Binding assay; conditions: smilagenin 1 μM
Method: as §1, §2

Progesterone PR-B = Progesterone PR-B (Homo sapiens, UniProt P06401); experiment: Binding assay; conditions: smilagenin 1 μM
Method: as §1, §2

Bombesin BB1 = Bombesin BB1 (Homo sapiens, UniProt P28336); experiment: Binding assay; conditions: smilagenin 1 μM
Sequence of Bombesin BB1 (P28336 whole entry): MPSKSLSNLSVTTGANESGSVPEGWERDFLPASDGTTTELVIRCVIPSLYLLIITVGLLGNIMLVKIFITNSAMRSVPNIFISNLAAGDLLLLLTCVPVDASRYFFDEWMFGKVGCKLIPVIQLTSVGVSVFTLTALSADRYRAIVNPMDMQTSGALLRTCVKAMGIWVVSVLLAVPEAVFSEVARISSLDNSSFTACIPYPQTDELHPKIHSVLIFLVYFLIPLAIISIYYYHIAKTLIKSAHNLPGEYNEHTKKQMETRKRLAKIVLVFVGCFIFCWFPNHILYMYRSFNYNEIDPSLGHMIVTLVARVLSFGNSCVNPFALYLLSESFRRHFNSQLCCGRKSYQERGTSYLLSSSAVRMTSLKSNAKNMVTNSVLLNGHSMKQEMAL
Method: as §1, §2

[3] = biological target: 5-Hydroxytryptamine, 5-HT6 (Homo sapiens, UniProt P50406); experiment: Binding assay; conditions: smilagenin 1 μM
Sequence of 5-Hydroxytryptamine, 5-HT6 (P50406 whole entry): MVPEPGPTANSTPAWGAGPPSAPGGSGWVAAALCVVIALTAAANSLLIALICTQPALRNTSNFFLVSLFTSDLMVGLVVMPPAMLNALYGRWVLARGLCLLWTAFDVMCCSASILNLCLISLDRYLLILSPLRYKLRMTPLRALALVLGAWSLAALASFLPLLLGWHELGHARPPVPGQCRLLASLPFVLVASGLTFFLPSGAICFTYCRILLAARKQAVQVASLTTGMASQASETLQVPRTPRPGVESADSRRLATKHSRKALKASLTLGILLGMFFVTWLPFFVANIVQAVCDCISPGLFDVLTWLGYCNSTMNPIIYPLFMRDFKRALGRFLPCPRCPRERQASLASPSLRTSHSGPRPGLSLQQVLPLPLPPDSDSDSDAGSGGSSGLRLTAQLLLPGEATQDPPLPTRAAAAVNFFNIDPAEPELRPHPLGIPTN
Method: as §1, §2

Potassium Channel HERG = Potassium Channel HERG (Homo sapiens, UniProt Q12809); experiment: Binding assay; conditions: smilagenin 1 μM
Method: as §1, §2

[4] = biological target: 5-Hydroxytryptamine, 5-HT1A (Homo sapiens, UniProt P08908); experiment: Binding assay; conditions: smilagenin 1 μM
Method: as §1, §2

Histamine H3 = biological target: T6, Histamine H3 (Homo sapiens, UniProt Q9Y5N1); experiment: Binding assay; conditions: smilagenin 1 μM
T6 construct: host or cells: tissue or cell homogenate (not specified)
Method: as §1, §2

Somatostatin sst5 = Somatostatin sst5 (Homo sapiens, UniProt P35346); experiment: Binding assay; conditions: smilagenin 1 μM
Method: as §1, §2

Chemokine CCR5 = Chemokine CCR5 (Homo sapiens, UniProt P51681); experiment: Binding assay; conditions: smilagenin 1 μM
Method: as §1, §2

Opiate δ (OP1, DOP) = Opiate δ (OP1, DOP) (Homo sapiens, UniProt P41143); experiment: Binding assay; conditions: smilagenin 1 μM
Sequence of Opiate δ (OP1, DOP) (P41143 whole entry): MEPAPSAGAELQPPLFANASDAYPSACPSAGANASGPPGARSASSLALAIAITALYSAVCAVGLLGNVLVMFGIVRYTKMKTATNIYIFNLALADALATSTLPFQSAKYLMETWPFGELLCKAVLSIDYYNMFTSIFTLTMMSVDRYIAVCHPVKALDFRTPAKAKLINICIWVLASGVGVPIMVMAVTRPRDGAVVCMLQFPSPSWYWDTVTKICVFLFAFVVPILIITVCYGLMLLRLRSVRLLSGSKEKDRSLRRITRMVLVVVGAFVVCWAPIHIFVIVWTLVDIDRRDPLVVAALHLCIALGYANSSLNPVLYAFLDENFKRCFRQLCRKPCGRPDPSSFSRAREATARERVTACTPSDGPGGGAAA
Method: as §1, §2

[5] = biological target: 5-Hydroxytryptamine, 5-HT1B (Rattus norvegicus, UniProt P28564); experiment: Binding assay; conditions: smilagenin 1 μM
Method: as §1, §2

GDNF = experiment: Striatal GDNF in MPTP-lesioned mice (ELISA); assay type: in vivo, C57b1/6 RJ mice; conditions: smilagenin 10 mg/kg/day oral, 60 days, striatum
Method: Seven-week old male C57b1/6 RJ mice (C57 mice) received daily injections 1-methyl-4-phenyl-1,2,3,6-tetrahydropyridine (MPTP, 25 mg/kg/day, i.p., for 5 consecutive days) and oral administration of smilagenin (10 mg/kg/day) or vehicle (hydroxylpropylmethylcellulose, HPMC 0.5% w/v containing tween-80 0.2% v/v) for 60 days after which time their brains were removed for quantification of striatal levels of GDNF and BDNF using an ELISA and of dopamine transporter (DAT) levels using [I^125]-RTI binding. DAT is a marker for neuronal damage to dopaminergic neurones.

## C[C@@H]1CC[C@@]2(OC1)O[C@H]1C[C@H]3[C@@H]4CC[C@@H]5C[C@@H](O)CC[C@]5(C)[C@H]4CC[C@]3(C)[C@H]1[C@@H]2C [Smilagenin, smilagenin]
Dopamine D1
  Effect (%): NS (NS = No significant response. Significance was taken as ≧30% stimulation or inhibition)
Calcitonin
  Effect (%): NS (NS = No significant response. Significance was taken as ≧30% stimulation or inhibition)
Somatostatin sst3
  Effect (%): NS (NS = No significant response. Significance was taken as ≧30% stimulation or inhibition)
Ryanodine RyR3
  Effect (%): NS (NS = No significant response. Significance was taken as ≧30% stimulation or inhibition)
Histamine H1
  Effect (%): NS (NS = No significant response. Significance was taken as ≧30% stimulation or inhibition)
Melatonin MT1
  Effect (%): NS (NS = No significant response. Significance was taken as ≧30% stimulation or inhibition)
Interleukin IL-2
  Effect (%): NS (NS = No significant response. Significance was taken as ≧30% stimulation or inhibition)
[1]
  Effect (%): NS (NS = No significant response. Significance was taken as ≧30% stimulation or inhibition)
Colchicine
  Effect (%): NS (NS = No significant response. Significance was taken as ≧30% stimulation or inhibition)
Prostanoid EP4
  Effect (%): NS (NS = No significant response. Significance was taken as ≧30% stimulation or inhibition)
Interleukin IL-1
  Effect (%): NS (NS = No significant response. Significance was taken as ≧30% stimulation or inhibition)
Adrenergic β2
  Effect (%): NS (NS = No significant response. Significance was taken as ≧30% stimulation or inhibition)
Adrenergic α2A
  Effect (%): NS (NS = No significant response. Significance was taken as ≧30% stimulation or inhibition)
Dopamine D4.2
  Effect (%): NS (NS = No significant response. Significance was taken as ≧30% stimulation or inhibition)
Melanocortin MC4
  Effect (%): NS (NS = No significant response. Significance was taken as ≧30% stimulation or inhibition)
Cannabinoid CB1
  Effect (%): NS (NS = No significant response. Significance was taken as ≧30% stimulation or inhibition)
[2]
  Effect (%): NS (NS = No significant response. Significance was taken as ≧30% stimulation or inhibition)
Chemokine CCR4
  Effect (%): NS (NS = No significant response. Significance was taken as ≧30% stimulation or inhibition)
Muscarinic M4
  Effect (%): NS (NS = No significant response. Significance was taken as ≧30% stimulation or inhibition)
Muscarinic M5
  Effect (%): NS (NS = No significant response. Significance was taken as ≧30% stimulation or inhibition)
Endothelin ETB
  Effect (%): NS (NS = No significant response. Significance was taken as ≧30% stimulation or inhibition)
Bradykinin B2
  Effect (%): NS (NS = No significant response. Significance was taken as ≧30% stimulation or inhibition)
Progesterone PR-B
  Effect (%): NS (NS = No significant response. Significance was taken as ≧30% stimulation or inhibition)
Bombesin BB1
  Effect (%): NS (NS = No significant response. Significance was taken as ≧30% stimulation or inhibition)
[3]
  Effect (%): NS (NS = No significant response. Significance was taken as ≧30% stimulation or inhibition)
Potassium Channel HERG
  Effect (%): NS (NS = No significant response. Significance was taken as ≧30% stimulation or inhibition)
[4]
  Effect (%): NS (NS = No significant response. Significance was taken as ≧30% stimulation or inhibition)
Histamine H3
  Effect (%): NS (NS = No significant response. Significance was taken as ≧30% stimulation or inhibition)
Somatostatin sst5
  Effect (%): NS (NS = No significant response. Significance was taken as ≧30% stimulation or inhibition)
Chemokine CCR5
  Effect (%): NS (NS = No significant response. Significance was taken as ≧30% stimulation or inhibition)
Opiate δ (OP1, DOP)
  Effect (%): NS (NS = No significant response. Significance was taken as ≧30% stimulation or inhibition)
[5]
  Effect (%): NS (NS = No significant response. Significance was taken as ≧30% stimulation or inhibition)
GDNF
  GDNF (% increase above MPTP mice): 372 ± 92 %
  GDNF (pg/mg tissue): 275.31 ± 59.62 pg/mg tissue

Source: patent US20120034193A1, “TREATMENT OF NEUROTROPHIC FACTOR MEDIATED DISORDERS” (priority 2009, published 2012)
